The text below walks through data of patent US20110065087A1, “NOVEL HIV TARGETS” (priority 2007, published 2011).

d = 2'-deoxy (DNA); r = 2'-OH (RNA) Some results are limits rather than exact numbers.

For the data set, the system named is HXB2 HIV. Description: Rescue of 3′UTR siRNA-mediated inhibition of HIV replication by non-targeted cDNA, β-galactosidase readout. The class given is cell-based. Conditions: LIG3 cDNA lacking the 3′UTR; FIG. 7.

In the case of “CAUACUCUCCUUUACCAUAdTdT (CAUACUCUCCUUUACCAUATT; siRNA; sugars from the 5' end r19 d2, backbone not given here) [LIG3 siRNA #8, siRNA targeting the 3′UTR of LIG3]”, the “p, difference between siRNA+vector-transfected and siRNA+cDNA transfected” value is listed as less than 0.05.
